Experimental findings from ChEMBL document CHEMBL5512685, “Discovery of a Promising CBP/p300 Degrader XYD129 for the Treatment of Acute Myeloid Leukemia” (J Med Chem, 2024) are described below.

Activity calls are given as the source filed them. No cut-off for these calls is given here.

Data set [1] concerns MV4-11. As to the kind of experiment: Antiproliferative activity against human MV4-11 cells assessed as inhibition of cell growth incubated for 120 hrs by celltiter glo luminescence analysis. Format: functional, cell-based. The following applies: MV4-11, 120 h. A general note: In ATP-based viability assays light output follows the ATP content of the culture.
The target in data set [2] is T1, CREB-binding protein (Homo sapiens, UniProt Q92793). Kind of data set: Inhibition of C-terminal biotinylated tetra-acetylated histone peptide H4 binding to His6-fused human CBP bromodomain (R1081 to G1197 residues) incubated for 1 hrs by HTRF assay. (In general: TR-FRET usually uses a lanthanide donor and a delayed reading to cut background.)
The target in data set [3] is T2, Histone acetyltransferase p300 (Homo sapiens, UniProt Q09472). Kind of data set: Inhibition of C-terminal biotinylated tetra-acetylated histone peptide H4 binding to His6-fused human p300 bromodomain (A1040 to G1161 residues) incubated for 1 hrs by HTRF assay.
A further data set concerns the target Protein cereblon (Homo sapiens, UniProt Q96SW2). As to the kind of experiment: Inhibition of biotinylated thalidomide binding to CRBN (40 to 442 residues) (unknown origin) incubated for 1 hrs by HTRF assay.
Data set [4] in a line: Antiproliferative activity against human MOLM16 cells assessed as inhibition of cell growth incubated for 72 hrs by celltiter glo luminescence analysis. Format: functional, cell-based, MOLM-16. Particulars: MOLM16, 72 h.
The next data set has as its system KG-1. As to the kind of experiment: Antiproliferative activity against human KG-1 cells assessed as inhibition of cell growth incubated for 72 hrs by celltiter glo luminescence analysis. Format: functional, cell-based. Particulars: KG-1, 72 h.
A short description of data set [5]: Cytotoxicity against human HL7702 cells assessed as inhibition of cell growth incubated for 72 hrs by celltiter glo luminescence analysis. Format: toxicity, cell-based. The following applies: HL7702 (L02) cells.
For data set [6], the target named is T3, Protein cereblon/CREB-binding protein (Homo sapiens) (UniProt Q92793+Q96SW2). Kind of data set: PROTAC activity at CRBN/CBP in human MOLM16 cells assessed as induction of CBP degradation incubated for 24 hrs by Western blot analysis. Format: cell-based. Particulars: dose 0-1000 nM. A general note: In western blotting, separated proteins are transferred to a membrane and probed.

Data set [7] concerns the target T4, Protein cereblon/Histone acetyltransferase p300 (Homo sapiens) (UniProt Q09472+Q96SW2). As to the kind of experiment: PROTAC activity at CRBN/p300 in human MOLM16 cells assessed as induction of p300 degradation incubated for 24 hrs by Western blot analysis. Particulars: dose 0-1000 nM. Format: cell-based.
Data set [8] concerns the target T3, Protein cereblon/CREB-binding protein (Homo sapiens). Kind of data set: PROTAC activity at CRBN/CBP in human MOLM16 cells assessed as induction of CBP degradation at 333 nM incubated for 24 hrs by Western blot analysis relative to control. Format: cell-based.
Data set [9] addresses T4, Protein cereblon/Histone acetyltransferase p300 (Homo sapiens). As to the kind of experiment: PROTAC activity at CRBN/p300 in human MOLM16 cells assessed as induction of p300 degradation at 333 nM incubated for 24 hrs by Western blot analysis relative to control. Format: cell-based.
For data set [10], the target named is T3, Protein cereblon/CREB-binding protein (Homo sapiens). As to the kind of experiment: PROTAC activity at CRBN/CBP in human MOLM16 cells assessed as induction of CBP degradation at 500 nM by Western blot analysis. Format: cell-based. The following applies: time 0-24 hrs, TDE = time-dependent effect.
Data set [11] deals with T4, Protein cereblon/Histone acetyltransferase p300 (Homo sapiens). Kind of data set: PROTAC activity at CRBN/p300 in human MOLM16 cells assessed as induction of p300 degradation at 500 nM by Western blot analysis. Format: cell-based. Particulars: time 0-24 hrs, TDE = time-dependent effect.
Data set [12] concerns the target T3, Protein cereblon/CREB-binding protein (Homo sapiens). Kind of data set: PROTAC activity at CRBN/CBP in human MOLM16 cells assessed as reduction in CBP protein level at 500 nM measured after 18 hrs by Western blot analysis. Format: cell-based.
Data set [13] deals with T4, Protein cereblon/Histone acetyltransferase p300 (Homo sapiens). Kind of data set: PROTAC activity at CRBN/p300 in human MOLM16 cells assessed as reduction in p300 protein level at 500 nM measured after 18 hrs by Western blot analysis. Format: cell-based.
Data set [14] addresses T3, Protein cereblon/CREB-binding protein (Homo sapiens). Kind of data set: PROTAC activity at CRBN/CBP in human MOLM16 cells assessed as reduction in CBP protein level at 500 nM pretreated with pomalidomide for 2 hrs followed by compound treatment and measured after 18 hrs by Western blot analysis. Format: cell-based.
The target in data set [15] is T4, Protein cereblon/Histone acetyltransferase p300 (Homo sapiens). Kind of data set: PROTAC activity at CRBN/p300 in human MOLM16 cells assessed as reduction in p300 protein level at 500 nM pretreated with pomalidomide for 2 hrs followed by compound treatment and measured after 18 hrs by Western blot analysis. Format: cell-based.
The target of data set [16] is T3, Protein cereblon/CREB-binding protein (Homo sapiens). Kind of data set: PROTAC activity at CRBN/CBP in human MOLM16 cells assessed as reduction in CBP protein level at 500 nM pretreated with MG-132 for 2 hrs followed by compound treatment and measured after 18 hrs by Western blot analysis. Format: cell-based.
The target in data set [17] is T4, Protein cereblon/Histone acetyltransferase p300 (Homo sapiens). As to the kind of experiment: PROTAC activity at CRBN/p300 in human MOLM16 cells assessed as reduction in p300 protein level at 500 nM pretreated with MG-132 for 2 hrs followed by compound treatment and measured after 18 hrs by Western blot analysis. Format: cell-based.
The nature of data set [18]: Antitumor activity against human MOLM16 cells xenografted in NOD-SCID mouse assessed as tumor growth inhibition at 30 mg/kg, ip administered once daily for 2 weeks and measured every other day by caliper method relative to control. Format: functional, MOLM-16. The following applies: MOLM16, 336 h, read-out: TGI.
Data set [19] is described as follows: Toxicity in NOD-SCID mouse xenografted with human MOLM16 cells assessed as reduction in body weight at 30 mg/kg, ip administered once daily for 2 weeks. Format: organism-based. Particulars: in vivo, 336 h.
Data set [20] concerns the target T3, Protein cereblon/CREB-binding protein (Homo sapiens). As to the kind of experiment: In vivo PROTAC activity at CRBN/CBP in NOD-SCID mouse xenografted with human MOLM16 cells assessed as reduction in CBP level in tumor at 30 mg/kg, ip administered once daily for 2 weeks and measured 1 day post last dose by Western blot analysis. Format: functional, organism-based. Particulars: time 15.0 day.

In the next data set the test system is Mus musculus. Kind of data set: In vivo PROTAC activity at CRBN/p300 in NOD-SCID mouse xenografted with human MOLM16 cells assessed as reduction in p300 level in tumor at 30 mg/kg, ip administered once daily for 2 weeks and measured 1 day post last dose by Western blot analysis. Format: functional, organism-based. The following applies: time 15.0 day.
The nature of data set [21]: Toxicity in NOD-SCID mouse xenografted with human MOLM16 cells assessed as pathological changes in heart at 30 mg/kg, ip administered once daily for 2 weeks by H and E staining based analysis. Format: organism-based. Particulars: in vivo, 336 h.
Data set [22] in a line: Toxicity in NOD-SCID mouse xenografted with human MOLM16 cells assessed as pathological changes in liver at 30 mg/kg, ip administered once daily for 2 weeks by H and E staining based analysis. Format: organism-based. Particulars: in vivo, 336 h.
The nature of data set [23]: Toxicity in NOD-SCID mouse xenografted with human MOLM16 cells assessed as pathological changes in spleen at 30 mg/kg, ip administered once daily for 2 weeks by H and E staining based analysis. Format: organism-based. Particulars: in vivo, 336 h.
Data set [24] can be described thus: Toxicity in NOD-SCID mouse xenografted with human MOLM16 cells assessed as pathological changes in lung at 30 mg/kg, ip administered once daily for 2 weeks by H and E staining based analysis. Format: organism-based. Particulars: in vivo, 336 h.
The nature of data set [25]: Toxicity in NOD-SCID mouse xenografted with human MOLM16 cells assessed as pathological changes in kidney at 30 mg/kg, ip administered once daily for 2 weeks by H and E staining based analysis. Format: organism-based. The following applies: in vivo, 336 h.
Data set [26] addresses T3, Protein cereblon/CREB-binding protein (Homo sapiens). As to the kind of experiment: Binding affinity to biotinylated CRBN (40 to 442 residues) (unknown origin)/His6-fused human CBP bromodomain (R1081 to G1197 residues) assessed as ternary complex formation incubated for 1.5 hrs by Alphascreen assay. Format: protein assay.
The target in data set [27] is T4, Protein cereblon/Histone acetyltransferase p300 (Homo sapiens). As to the kind of experiment: Binding affinity to biotinylated CRBN (40 to 442 residues) (unknown origin)/His6-fused human p300 bromodomain (A1040 to G1161 residues) assessed as ternary complex formation incubated for 1.5 hrs by Alphascreen assay. Format: protein assay.
For data set [28], the system named is MV4-11. Kind of data set: Potency index, ratio of Y08207 IC50 to test compound IC50 for antiproliferative activity against human MV4-11 cells assessed as inhibition of cell growth incubated for 120 hrs by celltiter glo luminescence analysis. Format: functional.
For data set [29], the target named is T1, CREB-binding protein. As to the kind of experiment: Inhibition of CBP (unknown origin) using histone H3 (1 to 21 residues) as substrate preincubated for 15 mins followed by substrate and [3H]Ac-CoA addition and measured after 60 mins by liquid scintillation counting analysis.
The target of data set [30] is T2, Histone acetyltransferase p300. As to the kind of experiment: Inhibition of p300 (unknown origin) using histone H3 (1 to 21 residues) as substrate preincubated for 15 mins followed by substrate and [3H]Ac-CoA addition and measured after 60 mins by liquid scintillation counting analysis.

As a reminder, the IC50 is the point on the concentration scale where inhibition reaches its midpoint. With `CC(=O)c1cc(C(=O)Nc2cc(CO)cc(-c3cnn(C)c3)c2F)c2cc(OCC(=O)NCCCCNc3cccc4c3C(=O)N(C3CCC(=O)NC3=O)C4=O)ccn12` (stereo not drawn), the IC50 came out at 44 nM in the data set on MV4-11 [1]; 21 nM on CREB-binding protein [2]; 30 nM in [3]; 180 nM at Protein cereblon; 7 nM in [4]; 570 nM in the data set on KG-1. The IC50 at 72 h in data set [5] was more than 100000 nM. Also, the Activity entry was “Dose-Dependent Effect” in data set [6]; “Dose-Dependent Effect” in data set [7]; 100% in data set [8]; 100% in data set [9]; “Tde” in data set [10]; “Tde” in data set [11]. For the same molecule, the Activity result in data set [19], in [21], in [22], in [23], in data set [24] and in [25] was “Non-Toxic” in each case. Further, the outcome (in data set [12]; in data set [13]; in data set [20]; with Mus musculus; in data set [26]; in [27]) was Active. Moreover, the result in data set [14], in data set [15], in [16] and in data set [17] was inactive. In addition, in data set [18], the inhibition in vivo at 30 mg/kg was 60%. In addition, in the data set with MV4-11 [28], the “Ratio IC50” value stood at 140.

On to `CNC(=O)Nc1ccc2c(c1)CC[C@@]21OC(=O)N(CC(=O)N2Cc3cc(F)ccc3OC[C@H]2C2CC2)C1=O`, for which the IC50 on CREB-binding protein [29] was 11 nM; in [30], 0.5 nM.
